This passage reports melting point results from a melting point compilation (Tetko et al.; mined from patent text by program, amines drawn as free bases though some values may be those of a salt).

Bounds are passed on as bounds.

The molecule `CC(=O)N1CCC(C(C)(O)c2ccc(Cl)cc2)CC1` (stereo unspecified) gave a melting point of 178 to 180 °C.
Next, `O=c1[nH]c(=O)n(Cc2cccc(OCc3csc(-c4ccccc4)n3)c2)o1`: 139 to 140 °C; `C=CCC(C#N)(C#N)Cc1ccc(OCC)cc1`: 84.3 °C; `O=c1ccc(-c2ccc(OCC(O)CN3CCCCC3)cc2)n[nH]1` (stereo unspecified): 185 °C.
Turning to `CCN1c2ccccc2NC(=O)c2cccnc21`, the melting point fell in the range of 210 to 220 °C.
Next, `CCOC(=O)c1c2ccc(CC(=O)NOCC(=O)N3CCOCC3)ccc-2c(C(=O)OCC)c1N`: 196 to 198 °C.
Next, `CC(=O)OC(C)c1ccc2occ(C#N)c(=O)c2c1` (stereo unspecified): 148 to 149 °C; `NNC(=O)c1cnc2n(c1=O)CCCCC2`: 184 to 186 °C; `O=c1c(Cc2ccccc2)coc2cc(OS(=O)(=O)C(F)(F)F)ccc12`: 56 to 58 °C.
`COc1ccc(C(CN)C(CN)c2ccc(Cl)cc2)cc1` (stereo unspecified): the melting point was 124 to 127 °C.
`Brc1ccc2c(c1)COC(N[C@@H]1CCc3ccccc31)=N2`: the melting point is 123 °C.
For `CSCC(=O)Nc1cc(SCC(C)C)ccc1[N+](=O)[O-]`, the melting point was in the range of 73 to 74 °C.
As to `ClCCN1C2CCC1CC(c1ccc3ccccc3c1)C2` (stereo unspecified), the melting point was in the range of 84 to 88 °C.
Next, `CCOP(=O)(CNCc1cccnc1-c1cc(C(C)(C)C)c(O)c(C(C)(C)C)c1)OCC`: 100 to 101 °C; `CCCC1=C(C#N)C(c2ccccc2Cl)c2c(n[nH]c2-c2ccc3ccccc3c2)N1` (stereo unspecified): more than 270 °C; `Cc1ccc(S(=O)(=O)N2C[C@H](O)C[C@H]2CO)cc1`: 127 °C.
Next, `O=C1CN2CCOC2(c2ccccc2Cl)c2cc([N+](=O)[O-])ccc2N1` (stereo unspecified): 201 to 203 °C; `O=C(NCCCSc1cccnc1)c1cccs1`: 66 to 67 °C.
As for `O=C(ON1C(=O)CCC1=O)c1ccccc1`, the melting point was 178 °C.
As for `CCC(C)OC1OCC(O)(N(CC(C)C)C(=O)N(CCCl)N=O)C(O)C1O` (stereo unspecified), the melting point lay within 63 to 65 °C.
Next, `O=c1[nH]c(CCN2CCN(c3nsc4ccccc34)CC2)cs1`: 190 °C; `O=C(O)CCCCCCCCCCCNC(=O)CCCCCCCCCCBr`: 122 °C.
`CCc1ccc(S(=O)(=O)Nc2ccc(Cl)cc2)cc1` showed a melting point of 120 to 122 °C.
Take `CCC(CC)N1CCN(C(=O)Oc2ccc(OC)cc2)CC1`: the melting point was in the range of 52 to 54 °C.
`Cc1ccc(CSC[C@H](NC(=O)[C@H](C)CSC(=O)c2ccccc2)C(=O)O)cc1` gave a melting point of 115 to 126 °C.
As to `CNc1nc(-c2cccc(NC(=O)c3ccccc3Cl)c2)c2cc(OC)c(OC)cc2n1`, the melting point lay within 197 to 199 °C.
Next, `O=c1ccc2ccc(OCCCN3CCN(c4ccccc4)CC3)cc2o1`: 117 to 118 °C; `CCC(C(=O)N(C)C)n1cc(Cl)c(-c2ccccc2)n1` (stereo unspecified): 94 to 96.5 °C.
`COc1ccc(-c2nccc(C(N)=O)c2N)cc1` returned a melting point of 179 to 181 °C.
To `O=C(Nc1ccc(Cc2nnn[nH]2)cc1)C(F)(F)C(F)(F)C(F)(F)C(F)(F)C(F)(F)C(F)(F)C(F)(F)C(F)F` belongs 188 to 190 °C; to `CCCc1nc(SC(F)F)c(C(=O)O)n1Cc1ccc(-c2ccccc2S(=O)(=O)NC(=O)NCCCc2ccccc2)cc1`, 108 °C.
For the molecule `CCC(C(C)=CC(CNC(=O)Cc1n[nH]c(=O)c2ncccc12)=NO)[N+](=O)[O-]` (stereo unspecified), the melting point was in the range of 143 to 145 °C.
In the case of `Cc1ccc(S(=O)(=O)OC[C@H](O)c2ccc(OCc3ccccc3)cc2)cc1`, the melting point fell in the range of 91 to 92 °C.
To `O=C(c1ccc(-n2nc(-c3ccccc3O)nc2-c2ccccc2O)cc1)N1CCOCC1` belongs 157 to 160 °C.
Molecule `CON=C(C#N)c1ccccc1COc1cccc(Cl)c1` returned a melting point of 62 to 63 °C.
The molecule `N#Cc1c(C(F)(F)F)ccc(F)c1N` yielded a melting point of 100 to 102 °C.

In general, melting point refers to the temperature of the solid-liquid transition.
